Data on 18 compounds can be found in ChEMBL document CHEMBL1201862, “PubChem BioAssay data set” (2004).

Among the targets are Cytochrome P450 3A4 (Homo sapiens, UniProt P08684); Cytochrome P450 2C9 (Homo sapiens, UniProt P11712); Cytochrome P450 2D6 (Homo sapiens, UniProt P10635).
The target in another data set is Cytochrome P450 2C19 (Homo sapiens, UniProt P33261). The data set can be described thus: Cytochrome panel assay with activity outcomes. Panel member name: p450-cyp2c19 Compounds with AC50 equal or less than 10 uM are considered active. It counts as functional.
Chain of Cytochrome P450 2C19 (P33261 whole entry): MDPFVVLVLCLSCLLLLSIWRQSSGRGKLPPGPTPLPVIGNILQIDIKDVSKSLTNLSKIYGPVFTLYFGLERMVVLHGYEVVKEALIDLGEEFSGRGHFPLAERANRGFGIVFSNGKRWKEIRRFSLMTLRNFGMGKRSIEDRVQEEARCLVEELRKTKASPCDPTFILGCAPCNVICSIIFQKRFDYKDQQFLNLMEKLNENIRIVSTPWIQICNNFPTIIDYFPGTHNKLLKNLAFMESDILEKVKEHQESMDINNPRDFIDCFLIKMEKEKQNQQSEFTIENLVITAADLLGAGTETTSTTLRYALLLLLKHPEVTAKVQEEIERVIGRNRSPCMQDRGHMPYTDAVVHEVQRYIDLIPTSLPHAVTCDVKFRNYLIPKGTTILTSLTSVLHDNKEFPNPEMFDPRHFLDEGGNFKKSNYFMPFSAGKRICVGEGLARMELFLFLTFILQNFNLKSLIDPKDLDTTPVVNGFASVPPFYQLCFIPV
In another data set the target is T1, Cytochrome P450 1A2 (Homo sapiens, UniProt P05177).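 Further: PubChem cytochrome P450 panel assay, CYP1A2 panel member.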
T1 sequence (P05177 whole entry): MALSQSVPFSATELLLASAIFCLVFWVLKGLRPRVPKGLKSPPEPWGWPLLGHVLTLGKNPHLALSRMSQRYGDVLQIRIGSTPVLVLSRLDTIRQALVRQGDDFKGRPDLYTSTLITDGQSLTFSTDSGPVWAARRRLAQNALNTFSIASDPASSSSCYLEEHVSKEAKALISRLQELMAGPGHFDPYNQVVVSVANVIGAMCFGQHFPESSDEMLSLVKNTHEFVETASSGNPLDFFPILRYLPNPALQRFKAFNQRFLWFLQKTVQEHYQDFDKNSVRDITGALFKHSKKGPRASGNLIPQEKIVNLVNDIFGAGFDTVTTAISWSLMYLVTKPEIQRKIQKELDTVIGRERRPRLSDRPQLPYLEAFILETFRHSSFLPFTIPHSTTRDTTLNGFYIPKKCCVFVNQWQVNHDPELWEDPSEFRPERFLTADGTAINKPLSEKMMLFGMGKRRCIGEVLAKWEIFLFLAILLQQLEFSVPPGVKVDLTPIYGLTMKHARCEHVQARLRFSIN

The nature of data set [1]: Luminescence Cell-Based Dose Confirmation HTS to Identify Activators of 5'UTR Stem-Loop Driven Alpha-Synuclein mRNA Translation in H4 Neuroglioblastoma Cells. [Related pubchem assays: 1829 (Project Summary), 1814 (Primary HTS)]. It counts as functional.
Data set [2] in a line: Luminescence Cell-Based Dose Response HTS to Identify Activators of Luciferase Translation or Activity in H4 […] Cells. [Related pubchem assays: 1829 (Project Summary), 1814 (Primary HTS)]. The data set is classed as functional.
The test system of a further data set is H4. Briefly: Luminescence Cell-Based Dose Response HTS to Identify Activators of 5'UTR Stem-Loop Driven Prion Protein mRNA Translation in H4 Neuroglioblastoma Cells. [Related pubchem assays: 1829 (Project Summary), 1814 (Primary HTS)]. The data set is classed as functional. Particulars: Homo sapiens.

Calls of active or inactive are those of the source.

Chain of Cytochrome P450 3A4 (P08684 whole entry): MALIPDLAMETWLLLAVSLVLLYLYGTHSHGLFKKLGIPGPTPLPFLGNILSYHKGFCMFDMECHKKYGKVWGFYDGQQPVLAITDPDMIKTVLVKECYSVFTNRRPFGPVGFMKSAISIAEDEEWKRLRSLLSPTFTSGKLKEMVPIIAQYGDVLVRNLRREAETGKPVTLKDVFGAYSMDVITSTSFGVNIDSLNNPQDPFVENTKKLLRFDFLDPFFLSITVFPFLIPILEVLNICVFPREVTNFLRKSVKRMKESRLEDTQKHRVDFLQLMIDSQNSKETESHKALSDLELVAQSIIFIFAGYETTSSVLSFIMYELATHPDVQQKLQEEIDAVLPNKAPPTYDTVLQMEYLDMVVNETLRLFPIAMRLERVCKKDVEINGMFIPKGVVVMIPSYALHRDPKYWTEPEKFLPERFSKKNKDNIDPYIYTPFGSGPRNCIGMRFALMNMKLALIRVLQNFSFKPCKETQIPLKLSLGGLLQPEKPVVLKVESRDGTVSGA
Chain of Cytochrome P450 2D6 (P10635 whole entry): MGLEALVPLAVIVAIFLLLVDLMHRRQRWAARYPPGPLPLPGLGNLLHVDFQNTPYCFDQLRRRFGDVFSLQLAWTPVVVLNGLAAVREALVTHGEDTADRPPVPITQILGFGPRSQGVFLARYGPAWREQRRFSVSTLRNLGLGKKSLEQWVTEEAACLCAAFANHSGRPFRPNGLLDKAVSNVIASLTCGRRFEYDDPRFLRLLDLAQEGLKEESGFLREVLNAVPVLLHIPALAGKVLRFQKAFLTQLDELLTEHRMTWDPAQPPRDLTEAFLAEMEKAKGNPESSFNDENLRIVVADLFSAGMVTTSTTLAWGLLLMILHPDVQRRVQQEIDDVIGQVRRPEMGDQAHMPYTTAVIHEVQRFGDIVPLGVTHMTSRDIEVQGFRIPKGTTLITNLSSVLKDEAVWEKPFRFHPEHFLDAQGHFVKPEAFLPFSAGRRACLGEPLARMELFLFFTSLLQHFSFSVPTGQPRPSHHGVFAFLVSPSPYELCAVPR
Chain of Cytochrome P450 2C9 (P11712 whole entry): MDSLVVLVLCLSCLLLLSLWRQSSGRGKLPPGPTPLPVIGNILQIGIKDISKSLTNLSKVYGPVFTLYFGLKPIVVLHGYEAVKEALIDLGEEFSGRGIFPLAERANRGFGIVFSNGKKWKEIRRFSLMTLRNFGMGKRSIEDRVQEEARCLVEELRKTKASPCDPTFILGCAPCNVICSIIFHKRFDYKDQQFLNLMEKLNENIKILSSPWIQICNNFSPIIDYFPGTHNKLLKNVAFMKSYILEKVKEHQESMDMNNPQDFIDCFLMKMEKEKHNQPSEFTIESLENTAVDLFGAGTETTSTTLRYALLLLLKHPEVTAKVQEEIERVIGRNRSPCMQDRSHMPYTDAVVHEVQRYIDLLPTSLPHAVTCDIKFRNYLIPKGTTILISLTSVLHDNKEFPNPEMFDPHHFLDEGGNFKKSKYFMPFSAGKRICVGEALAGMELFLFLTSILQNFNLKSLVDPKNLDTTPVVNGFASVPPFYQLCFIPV

For `COc1ccc(C2N(c3ccccn3)C(=O)C3CCCN32)c(OC)c1` (stereo unspecified), the results for the concentration at half-maximal activity (AC50) on Cytochrome P450 2C19 (read-out: AC50), at Cytochrome P450 1A2 and at Cytochrome P450 3A4 were 28.2 µM (inconclusive), 0.00631 µM (inconclusive) and 22.4 µM (inconclusive), respectively.
Take `CC1(C)CC(=O)C2=C(C1)c1c(ccc3ccccc13)NC2c1ccco1` (stereo unspecified): the values for the EC50 (in data set [1]; in data set [2]; with H4) were 15.7 µM (active), 27.4 µM (active) and > 120 µM (not active), respectively.
As for `Cc1cccc(OCCOC(=O)c2c(-c3ccccc3)noc2C)c1`, the EC50 in data set [1] is > 120 µM (not active); in data set [2], 62 µM (active); with H4, > 120 µM (not active).
On to `CC1=NN(C(N)=S)C(=O)C1N=Nc1ccc(Cl)cc1Cl` (stereo unspecified), for which the EC50 was 1.09 µM (active) in data set [1], > 120 µM (not active) in data set [2] and > 120 µM (not active) in the data set with H4.
With `Cc1nc2ccccc2c(=O)n1/N=C1\C(=O)N(C)c2ccccc21`, the EC50 in data set [1] was > 120 µM (not active); in data set [2], 12.6 µM (active); in the data set on H4 it was > 120 µM (not active).
Take `CCN1/C(=N/c2ccc(Cl)cc2)SC/C1=C\C(=O)OC`: the EC50 in data set [1] was 17.1 µM (active); in data set [2], 26.6 µM (active); in the data set with H4, 23.7 µM (active).
With `CCSc1ccc2c(c1)N(CCCN1CCN(C)CC1)c1ccccc1S2`, the AC50 is 3.16 µM (inconclusive) at Cytochrome P450 2C19 (read-out: AC50) and 10 µM (inconclusive) on Cytochrome P450 3A4.
Turning to `CCC1C(=O)n2nc(-c3ccccc3)cc2N=C1C` (stereo unspecified), the half-maximal effective concentration (EC50) in data set [1] was 25.7 µM (active); in data set [2] it was 6.09 µM (active).
`O=C1NC2(CCCCC2)C(=O)N1/N=C/c1ccccc1Br`: the EC50 in data set [1] is > 120 µM (not active); in data set [2], 24.6 µM (active); in the data set with H4, 16.1 µM (active).
`O=C(CCS(=O)(=O)c1cccs1)NC1CCCCCC1`: the EC50 in data set [1] is 13.5 µM (active); in data set [2] it was 29.1 µM (active); with H4, 16 µM (active).
Turning to `Cc1nnc2n1N=CC=C(c1ccccc1)S2`, the EC50 in data set [1] is 0.547 µM (active); in data set [2] it was 7.89 µM (active); in the data set on H4, > 120 µM (not active).
Taken in the same sequence, the figures for `Cc1cc(O)[nH]c2nnc(-c3ccccc3)c1-2` were 8.88 µM (active), 10 µM (active) and 15.1 µM (active).
For `COc1cc2c(cc1OC)/C(=C/C(=O)N1CCOCC1)NC(C)(C)C2`, the AC50 is 22.4 µM (inconclusive) on Cytochrome P450 2C19 (read-out: AC50), 15.8 µM (inconclusive) at Cytochrome P450 1A2 and 3.98 µM (inconclusive) on Cytochrome P450 2C9.
In the case of `COc1[nH]nc2nncnc12`, the AC50 on Cytochrome P450 2C19 (read-out: AC50) is 15.8 µM (inconclusive); at Cytochrome P450 1A2 it was 6.31 µM (inconclusive).
Regarding `O=C(O)[C@H]1CN[C@H](C(=O)O)C1`, the AC50 result on Cytochrome P450 2C19 was “inconclusive”; at Cytochrome P450 2D6, 39.8 µM (inconclusive); on Cytochrome P450 1A2, 31.6 µM (inconclusive).
For the compound `COc1ccc2c(c1O)-c1cccc3c1[C@H](C2)N(C)CC3`, the AC50 at Cytochrome P450 2C19 (read-out: AC50) is 7.94 µM (inconclusive); at Cytochrome P450 2D6, 31.6 µM (inconclusive); on Cytochrome P450 3A4, 15.8 µM (inconclusive).
As to `COC(=O)c1ccc(COc2ccccc2/C=N/NS(=O)(=O)c2ccc(C)cc2)cc1`, the EC50 (in data set [1]; in data set [2]; in the data set with H4) was > 120 µM (not active) in each case.
On to `CC(C)CC(=O)O/N=C1\C(=O)N(c2ccccc2)c2ccccc21`, for which the AC50 on Cytochrome P450 2C19 (read-out: AC50) is 5.62 µM (inconclusive); on Cytochrome P450 1A2, 3.55 µM (inconclusive); at Cytochrome P450 2C9, 6.31 µM (inconclusive).

In general, AC50 refers to the midpoint of the concentration-response curve, whichever way the signal moves. Broadly, the EC50 is the concentration at which the effect is half-maximal.
